Legend:
[1] = test system: p21/WAF1 mRNA; assay: Northern blot of E1A/ras transformed murine embryonic fibroblasts, p21/WAF1 probe; assay type: cell-based
Method: (§1) Northern blot showing induction of EI24 RNA by p53 in E1A/ras transformed murine embryonic fibroblasts (MEFs). 1.0 μg of poly-A^+ RNA was loaded per lane. p53^+/+ and p53^−/− MEFs were left untreated, or treated with 50 μM etoposide for 6 hours, as indicated (lanes 1-4). Alternately, p53^−/− MEFs expressing either empty vector (pBabe Puro), or a tamoxifen-regulatable p53 (p53ER™) were left untreated, or treated with 3.3 μM tamoxifen (TMX) for 16 hours (lanes 5-8). The northern blot was hybridized sequentially with probes for EI24, p21/WAF1 and tubulin.
E1A and ras transformed mouse embryo fibroblasts and expression of the p53-ER™ fusion protein. Stable cell lines of p53^+/+ and p53^−/− MEFs expressing the oncogenes E1A and T24 H-ras were generated as described previously (Lowe S. W., Jacks T., Housman D. E. and Ruley H. E. (1994) Proc. Natl. Acad. Sci. USA, 91, 2026-2030). The plasmid for expression of the p53ER™ fusion protein, pBabe Puro p53ER™ G525R, using the retroviral vector pBabe Puro (Morgenstern J. P. and Land H. (1990) Nucl. Acids Res., 18, 3587-3596), was received as a generous gift from Trevor Littlewood (Imperial Cancer Research Fund, London). […]

[2] = test system: 2.4 kb mRNA recognized by 11G10 (EI24); assay: Northern blot of etoposide-treated 3T3 cells, 11G10 probe; details: 50 μM etoposide
[3] = test system: 5 kb mRNA detected by 38T19 probe; assay: Northern blot of etoposide-treated 3T3 cells, 38T19 probe; assay type: cell-based, Murine; details: 50 μM etoposide, 6 to 11 hours after treatment
Method: Induction of the 2.4 kb mRNA appeared to be maximal by 6 hours after etoposide exposure, representing a 7-fold increase. […] The levels of this mRNA were highest in untreated cells, and decreased at 6 to 11 hours after etoposide treatment, corresponding to a 4-fold reduction.

[4] = test system: NIH3T3 fibroblasts; assay: Etoposide exposure of asynchronously growing NIH3T3 fibroblasts, cell killing and microscopic observation; assay type: cell-based, Murine; details: 50 μM etoposide
[5] = test system: EI24 mRNA; assay: Northern blot of E1A/ras transformed murine embryonic fibroblasts, EI24 probe; assay type: cell-based
Method: as §1
E1A and ras transformed mouse embryo fibroblasts and expression of the p53-ER™ fusion protein. Stable cell lines of p53^+/+ and p53^−/− MEFs expressing the oncogenes E1A and T24 H-ras were generated as described previously (Lowe S. W., Jacks T., Housman D. E. and Ruley H. E. (1994) Proc. Natl. Acad. Sci. USA, 91, 2026-2030). The plasmid for expression of the p53ER™ fusion protein, pBabe Puro p53ER™ G525R, using the retroviral vector pBabe Puro (Morgenstern J. P. and Land H. (1990) Nucl. Acids Res., 18, 3587-3596), was received as a generous gift from Trevor Littlewood (Imperial Cancer Research Fund, London). In brief, this plasmid contains the ˜1.3 kb BamHI fragment of human p53 from pSV53her (Roemer K. and Friedmann T. (1993) Proc. Natl. Acad. Sci. USA, 90, 9252-9256) fused to the ligand-binding domain of the murine estrogen receptor carrying a point mutation at amino acid 525 that renders the receptor unable to bind estradiol but able to bind tamoxifen or 4-hydroxy tamoxifen (Danielian P., White R., Hoare S., Fawell S. and Parker M. (1993) Mol Endocrinol, 7, 232-240; Littlewood T. D., Hancock D. C., Danielian P. S., Parker M. G. and Evan G. I. (1995) NAR, 23, 1686-1690). For induction of wild-type p53 activity, p53ER™ transfected p53^−/− cells were treated with […] tamoxifen (Sigma). […]

SMILES	induction of WAF1 RNA ([1]; etoposide, p53−/− MEFs, maximal level lower than in p53+/+ cells)	increase of 2.4 kb mRNA (EI24) ([2]; 3 hours post treatment)	increase of 2.4 kb mRNA (EI24), maximal induction ([2]; 6 hours after exposure)	reduction of 5 kb mRNA [3]	signs of apoptosis by microscopic observation ([4]; for at least 6 hours following exposure)	cell killing ([4]; within 24 hours, asynchronously growing NIH3T3 cells)	induction of EI24 mRNA ([5]; etoposide 50 μM, 6 hours, E1A/ras-transformed p53+/+ cells)	induction of EI24 mRNA ([5]; etoposide 50 μM, 6 hours, E1A/ras-transformed p53−/− cells)	induction of WAF1 mRNA ([1]; tamoxifen treatment, p53ER p53−/− cells)	induction of EI24 mRNA ([5]; tamoxifen, p53−/− control cell line (pBabe Puro) with empty vector)
COc1cc([C@@H]2c3cc4c(cc3[C@@H](O[C@@H]3O[C@@H]5CO[C@@H](C)O[C@H]5[C@H](O)[C@H]3O)[C@H]3COC(=O)[C@H]23)OCO4)cc(OC)c1O [etoposide, Etoposide]	WAF1 RNA was induced	4 fold	7 fold	4 fold	no obvious signs of apoptosis	kill the majority of asynchronously growing cells	further induced	No induction of EI24		
CC/C(=C(\c1ccccc1)c1ccc(OCCN(C)C)cc1)c1ccccc1 [tamoxifen]									strongly induced	No EI24 induction

— patent US6586204B2, “Apoptosis gene EI24, compositions, and methods of use” (Apoptosis Technology, Inc., priority 1996, dated 2003)
